Measured values published in patent US12523646B2, “Device and method for cell-based drug screening” (The Regents of the University of California, priority 2017, dated 2026).

Assay: Numerical simulations (Comsol Multiphysics) of small-molecule concentration dynamics with porous beads and conical microwells
Details: 225 μm diameter beads

Compound: O=C1OC2(c3ccc(O)cc3Oc3cc(O)ccc32)c2ccccc21 [fluorescein]
- diffusion coefficient in the bead, Db, corresponding to measured t1/2: 0.125 μm^2/s
